Laboratory results taken from the NIST ThermoML archive (doi:10.1016/j.jct.2019.05.013).
Numbers after ± are expanded uncertainties.

Experiments:
[1] = refractive index (Na D-line) (dimensionless); settings: 293.15 K; 101.33 kPa; Liquid; Standard Abbe refractometry
[2] = wn = mass fraction of the nth substance listed; settings: 100 kPa, Liquid; for viscosity: Falling or rolling sphere viscometry; for mass density: Vibrating tube method

CO [methanol]
Settings	refractive index
[1]	1.32858 ± 0.0004

CO [methanol] + O
[2]
Settings	mass density, w1 = 0.1 [kg/m3]	mass density, w1 = 0.2 [kg/m3]	mass density, w1 = 0.3001 [kg/m3]	mass density, w1 = 0.4 [kg/m3]	mass density, w1 = 0.4999 [kg/m3]	viscosity, w1 = 0.1 [mPa·s]	viscosity, w1 = 0.2 [mPa·s]	viscosity, w1 = 0.3001 [mPa·s]	viscosity, w1 = 0.4 [mPa·s]	viscosity, w1 = 0.4999 [mPa·s]
273.15 K	984.19 ± 1	972.46 ± 1	960.61 ± 1	945.89 ± 1	928.63 ± 1	2.575 ± 0.055	3.315 ± 0.07	3.636 ± 0.077	3.623 ± 0.077	3.312 ± 0.07
293.15 K	981.29 ± 1	966.62 ± 1	951.49 ± 1	934.6 ± 1	915.53 ± 1	1.316 ± 0.028	1.623 ± 0.035	1.782 ± 0.038	1.824 ± 0.039	1.747 ± 0.037

O [water] + CO
[2], w2 = 0
Settings	mass density [kg/m3]	viscosity [mPa·s]
275.15 K	999.94 ± 1	1.661 ± 0.035
293.15 K	–	0.998 ± 0.021
